Reference: a melting point compilation (Tetko et al.; mined from patent text by program, amines drawn as free bases though some values may be those of a salt)

SMILES | melting point [°C]
CCOC(=O)c1cn(CC)c2sc(Br)cc2c1=O | 153 to 156
Nc1c(C(=O)O)c(=O)[nH]c2ccccc12 | > 250
Oc1ccc2c(c1O)OCC(c1ccccc1)C2 (configuration not stated) | 138
CS(=O)(=O)c1ccc(C#CCF)cc1 | 97 to 99
CC1(CO)C(=O)N(c2ccc(C#N)c(C(F)(F)F)c2)C(=O)N1CC#N (configuration not stated) | 171
CCN1CCCC1CNC(=O)c1ccc(O)c(Cl)c1 (configuration not stated) | 228
CC(O)C#CC1CCC2C3CCC4CC(O[Si](c5ccccc5)(c5ccccc5)C(C)(C)C)CCC4(C)C3CCC12C (configuration not stated) | 68 to 70
COc1cc2nc(N3CCN(C(=O)C45CC6CC(CC(C6)C4)C5)CC3)nc(N)c2cc1OC | 237 to 240
COc1cc(N)c(Cl)cc1C(=O)Cl | 242
CCCCCCCCCCCCCCCCNc1ccc(C(=O)NN)cc1 | 154 to 156
O=C1C2C3CCC(C4CC43)C2C(=O)N1c1cc(Cl)cc(Cl)c1 (configuration not stated) | 145 to 153
COc1ccc(N2CCN(C)CC2)c2c1CC[C@H](NC(=O)c1ccc(N3CCOCC3)cc1)C2 | 229 to 232
CCCn1nc(C(N)=O)cc1CC | 105 to 106
CCCCCCCCCCCCCCCCCC(O)c1ccc(Cl)c(C(=O)O)c1 (configuration not stated) | 106 to 107
O=C(C=Cc1ccccc1)C(Cc1ccccc1)(Cc1ccccc1)C(=O)C=Cc1ccccc1 | 182 to 183
Cc1c(C)c2c(c(C)c1NC(=O)OC(C)(C)C)C(c1ccc(C(C)C)cc1)CO2 (configuration not stated) | 121 to 122
CC(=O)Nc1ccn(C2CCC(COC(C)=O)O2)c(=O)n1 (configuration not stated) | 210 to 211
CCOc1ccc(C2(O)CCN(CC(O)c3ccc(O)c(C)c3)CC2)cn1 (configuration not stated) | 189
CCOc1ccc(-c2nc(C3=CCN(C)CC3)cs2)cc1OCC | 81.2 to 83.6
CCN1CCN(c2ccc(Br)nc2)CC1 | 30 to 31
CC(=O)N1CCN(c2cc3nc(C(C)(C)C)sc3cc2N=C=S)CC1 | 100 to 102
CCC12CCC3C4CCC(=O)C=C4CCC3C1CCC2(C)O (configuration not stated) | 128 to 129
O=C1c2ccccc2C(=O)N1C1CC=CCC1 (configuration not stated) | 114

SMILES | melting point [°C]
CNS(=O)(=O)c1cscc1CCl | 75 to 76
COc1nc(-c2cc(C)c(OCCCc3cc(C)no3)c(C)c2)no1 | 64.5 to 65.5
CC1(C)C(=O)Nc2cc(C(=O)CBr)ccc21 | 230 to 232
NC(=O)N(O)Cc1ccc(Br)cc1 | 157 to 159
CCCCCCCCc1ccc(CCC(N)(CO)CO)cc1 | 103 to 105
CS(=O)(=O)c1ccc(OCC2CCN(CC3CC3)CC2)cc1 | 134 to 135
O=C(O)c1ccc2ccc(C(F)(F)F)nc2c1O | 209 to 211
C#CCN(C)C(=O)NC | 68 to 69
CCCCC1OC(=O)c2cc(NC(=O)CCC(=O)O)ccc21 (configuration not stated) | 163 to 165
CCN(CC)Cc1nc(Cn2cnc3c2c(=O)n(C)c(=O)n3C)no1 | 68 to 70
OCc1nn(-c2cccc(C(F)(F)F)c2)c2c1CCCC2 | 93 to 94
O=C(NC1CC1)c1ccccc1SSc1ccccc1C(=O)NC1CC1 | 257 to 259
CCC(=O)Oc1ccc(C#N)cc1 | 44 to 46
Cc1c(Cc2ccc(C(C)C)cc2)c2c(c(C)c1NC(=O)CC(C)(C)C)C(C)CO2 (configuration not stated) | 185 to 186
CC(C)c1cc(O)cc(C(C)C)c1NC(=O)CN1CCN(CCSc2nc3ccccc3o2)CC1 | 162 to 164
O=C1NC(=O)C(Cc2ccccc2)C(=O)N1 | 207 to 209
CCCCCCNC(=O)C1=C(C(=O)Nc2cc(OC3CCCC3)c(Cl)cc2F)CCCC1 | 128 to 130
Cn1c(=O)ccc2cnc(N)nc21 | 237 to 253
N#Cc1ccc(C(=O)C=Cc2ccccc2)cc1 | 120
Cc1cccc2c(=O)[nH]c(CCCN3CCC[C@@H]3CO)cc12 | 150 to 151
Cc1nc(-c2ccccc2)c(CBr)o1 | 75 to 76
N#Cc1cccc(Br)c1N | 119 to 120

Continued, values first:

melting point [°C] | SMILES
94 to 97 | Cc1cc(-c2ccc(C(F)(F)F)cc2)nc(S(C)(=O)=O)n1
150 to 151 | O=C(NCCCCCOc1ccc(-n2ccnc2)cc1)c1ccc(Br)cc1
145 to 147 | COc1ccc(C2C=C3CCN(Cc4ccccc4)CC3C(CO)C2CO)cc1 (configuration not stated)
167 to 171 | CCOC(=O)/C=C/c1cc(-c2ccc(C)cc2)n(-c2ccc(S(N)(=O)=O)cc2)n1
157 to 158 | CCN(c1ccc(C)c2cc(-c3ncc(CN4CCN(C(C)=O)CC4)s3)[nH]c12)S(=O)(=O)c1cccs1
230 to 233 | CCNC(=O)Nc1nc2cc(-c3cccnc3)ccn2n1
235 to 236 | CC(=O)Nc1ccccc1-c1ccn[nH]c1=O
165 to 167 | CCCc1nn(C)c2c1N=C(c1cc(CCC(=O)O)ccc1OCC)NC2
164 to 166 | CCn1c(-c2ccc(Cl)c(S(=O)(=O)N(C)C)c2)csc1=Nc1ccccc1C
212 to 213 | O=C1CCC(=O)N1CC(=O)N1c2ccccc2N(Cc2ccccc2)C(=O)[C@H]2CCC[C@H]21 (relative stereo)
96 | CC(C)(C)NCC(O)COc1ccccc1CCCc1cccc2[nH]ccc12 (configuration not stated)
320 | NC(=O)c1c(N)oc2ccc(Cl)cc2c1=O
219 to 220 | CC(=O)Nc1cc(Oc2ccc3c(c2)CCN3C(=O)Nc2ccc(OC(C)(C)C(=O)O)c(C(F)(F)F)c2)ncn1
197 to 199 | Cc1cc2[nH]c(CC(C)(C)N3C(=O)c4ccccc4C3=O)nn2n1
103 to 105 | Clc1ccc([C@@]2(Cn3ccnc3)OC[C@H](COc3ccc4c(c3)CCN(Cc3ccc(-c5ccccc5)cc3)C4)O2)c(Cl)c1 (racemic)
137 to 138 | CC(=O)NC1=CCc2ccccc21
86 to 87 | CC(C)(O)[C@@H](N)c1cccc2ccccc12
197 to 200 | CCCCc1nc2c(N)nc3ccccc3c2n1CCCCNS(=O)(=O)Cc1ccccc1
101 to 105 | CCOC(=O)ON=C(N)c1cccc(Oc2ccc3c(c2)S(=O)(=O)N=C2CCCN23)c1

melting point [°C] | SMILES
254 to 260 | Cc1cccc(-c2c[nH]c(=O)c(C#N)c2)c1
129 to 130 | CN1CCN(c2cccc(Nc3ccc(-c4ccoc4)cc3N)c2)CC1
127 to 129 | COc1ccc(OC)c(-c2cccc(-n3cnc(-c4nc(C)no4)c3)c2)c1
178 to 181 | CC(C)(C1OCCO1)C(O)C(Cc1ccc(Cl)cc1Cl)n1cncn1 (configuration not stated)
242 to 243 | COc1nc2cccnc2n(-c2ccc(Cl)cc2)c1=O
124 to 125 | COC(=O)Cc1ccc(Sc2ccccc2C(=O)N(C)C)c([N+](=O)[O-])c1
167 to 170 | COC(=O)c1cc([N+](=O)[O-])ccc1CS(N)(=O)=O
274 to 275 | CCc1c(-c2ccc(O)cc2)c2cc(C(C)=O)c3cc(O)cc1n32
226 | CCCNCCCOc1ccc(-c2ccc(C(=O)O)cc2)cc1-c1ccc2c(c1)C(C)(C)CCC2(C)C
116 to 117 | Cc1coc2c1C(=O)CC(c1cccc(Cl)c1Cl)C2 (configuration not stated)
210 to 212 | Cc1cc(C)c(Nc2nc(C)ncc2S(=O)(=O)c2ccc(-c3cncnc3)cc2)c(C)c1
58 to 61 | CCOC(=O)c1nnnn1Cc1ccccc1
163 to 165 | Cc1cccc(C)c1C(=O)Oc1cc([N+](=O)[O-])cc([N+](=O)[O-])c1O
153 to 154 | COC(CC(=O)c1ccc(Br)cc1)C(=O)c1ccc(Br)cc1 (configuration not stated)
137 to 141 | COc1ccc(C(=O)NNC(=O)c2occ(-c3ccccc3)c2-c2ccccc2)cc1NC(=O)OC(C)(C)C
73 | CCCc1oc2ccc([N+](=O)[O-])cc2c1C(=O)c1ccc(OC)cc1
65 | CCOCc1nc(C(C)(C)O)c(C(=O)OCOC(=O)C(C)(C)C)n1Cc1ccc(-c2ccccc2C(=O)O)cc1
216 to 217 | O=S(=O)(Nc1nnc(Cl)cc1OCc1cccnc1)c1cccc(Cl)c1Cl
93 to 95 | CCC(OC)(c1cncc(OCc2ccc3ccccc3c2)c1)c1nccs1 (configuration not stated)

melting point [°C] | SMILES
178 to 180 | O=C(O)Cc1cccc2c(=O)cc(-c3c(F)cccc3F)oc12
192 | COc1ccc(N(C(=O)CN2C(=O)c3ccccc3C2=O)c2ccccc2)cc1
133 to 135 | COC(=O)c1ccc(OC)c(CC2COc3ccc(OCc4ccccc4)cc3C2O)c1 (configuration not stated)
111 to 121 | CC(CN1C(=O)c2ccccc2C1=O)OS(C)(=O)=O (configuration not stated)
180 | CCOC(=O)Cc1cc(-c2ccccc2)nc2ccccc12
165 to 167 | COc1ccc(-c2ccc(C(=O)Nc3cc4ncc(CN5CCCC5)cc4cc3C)cc2F)cc1
86 to 89 | CCOC(=O)c1sc(-c2cccn2C)nc1-c1ccccc1
136 to 139 | CCCc1nc2c(N)nc3cc(OCCCCCCNC(=O)OC(C)(C)C)ccc3c2s1
258 to 260 | CCS(=O)(=O)c1cc2c(cc1OC)CCn1c3c(c(-c4cncs4)c1-2)CCCCN(C(C)(C)C)C3=O
65 to 66 | Fc1ncnc(Oc2ccccc2)c1F
238 to 241 | O=c1[nH]c2c(-c3ccccc3F)nnn2c2ccccc12
207 to 208 | CCNC(=O)c1cc(NCn2nnc3ccccc32)ccc1[Si](C)(C)C
132 to 135 | CCOC(=O)c1ccc(-c2ccc(-c3ccccc3OCOC)c(-c3ccc4c(c3)C(C)(C)CCC4(C)C)c2)cc1
106 to 108 | CN(Cc1ccccc1)Cc1nc(-c2ccc(-c3ccccc3)cc2)c[nH]1
125 to 128 | Cc1oncc1C(=O)Nc1ccc(-n2nc(C(F)(F)F)cc2C2CC2)c(F)c1
63 to 64 | COc1ccc(CCCOCCCCCNCC(O)c2cc(Cl)c(N)c(Cl)c2)cc1 (configuration not stated)
210 to 211 | NC(=O)N1C(=O)Cc2cc(C(=O)c3ccccc3)ccc21
48 to 51 | Cc1[nH]cnc1CSCCN=CNS(=O)(=O)c1ccccc1
151 | COc1ccc(C(=O)Nc2ccc3ccc(Oc4cccc(F)c4)nc3n2)cc1
